Measurements as given in patent publication US9079974B2, “GH-RH analogs with potent agonistic effects” (The University of Miami, priority 2011, dated 2015).
Entries after “also recorded” stand apart in the source; their conditions may differ. Square brackets hold non-standard residues; d marks the D form. Peptide text beside a SMILES is read from it. * marks the point of attachment. Desaminotyrosyl = O=C(CCc1ccc(O)cc1)*; NMeY = CN[C@@H](Cc1ccc(O)cc1)C(=O)O; Agmatine = N=C(N)NCCCCN*; Nle = CCCC[C@H](N)C(=O)O; Orn = NCCC[C@H](N)C(=O)O; Abu = CC[C@H](N)C(=O)O; Ava = NCCCCC(=O)O; GABA = NCCCC(=O)O

What was measured:
GH release = assay: In vivo GH release after subcutaneous administration; settings: rat, s.c.
Experimental: Blood samples are taken from the jugular vein; 5, 15 and 30 minutes or only 15 and 30 minutes after the injection. The blood samples are centrifuged, plasma is removed and the GH level is measured by ELISA. The results are summarized in terms of potency in Table 9.

GHRH receptor = target: T1, GHRH receptor (Homo sapiens, UniProt Q02643); assay: GHRH receptor binding, 125I-labeled JV-1-42 ligand competition, human pituitary membrane homogenates (Table 7); settings: 125I-labeled JV-1-42, human pituitary membranes
T1 construct: Normal human pituitaries were purchased from the National Hormone and Peptide Program; tissue National Hormone and Peptide Program (A. F. Parlow); host or cells: normal human pituitary, membrane fraction
T1 sequence (Q02643 23-423): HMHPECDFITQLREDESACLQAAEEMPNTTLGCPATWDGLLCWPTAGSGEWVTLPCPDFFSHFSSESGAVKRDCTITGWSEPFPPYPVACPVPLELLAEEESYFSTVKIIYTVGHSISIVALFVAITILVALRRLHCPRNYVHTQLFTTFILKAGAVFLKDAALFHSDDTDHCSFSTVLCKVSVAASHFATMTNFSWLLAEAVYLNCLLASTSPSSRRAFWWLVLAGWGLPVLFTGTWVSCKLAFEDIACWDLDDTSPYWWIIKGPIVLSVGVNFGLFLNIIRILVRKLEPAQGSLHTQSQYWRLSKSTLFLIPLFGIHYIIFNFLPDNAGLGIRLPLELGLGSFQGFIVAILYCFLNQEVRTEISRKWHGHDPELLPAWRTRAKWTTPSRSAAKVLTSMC
Experimental: Preparation of human pituitary membrane fraction and receptor binding of GHRH agonists were performed as previously described, by using a sensitive in vitro ligand competition assay based on binding of ^125I-labeled JV-1-42 to human pituitary membrane homogenates. Normal human pituitaries were purchased from the National Hormone and Peptide Program (A. F. Parlow, Los Angeles, County Harbor-UCLA Medical Center, Torrance, Calif.).

| Compound | GH response after subcutaneous administration (in words) (GH release) | IC50 (GHRH receptor) [nM] |
| --- | --- | --- |
| CCCC[C@H](NC(=O)[C@@H](NC(=O)[C@H](CC(=O)O)NC(=O)[C@H](CCC(N)=O)NC(=O)[C@H](CC(C)C)NC(=O)[C@H](CC(C)C)NC(=O)[C@H](CCCN)NC(=O)[C@H](CCCNC(=N)N)NC(=O)[C@H](C)NC(=O)[C@H](CO)NC(=O)[C@H](CC(C)C)NC(=O)[C@H](CCC(N)=O)NC(=O)[C@H](CC)NC(=O)[C@H](CC(C)C)NC(=O)[C@@H](NC(=O)[C@H](CCCN)NC(=O)[C@H](CCCNC(=N)N)NC(=O)[C@H](Cc1ccc(O)cc1)NC(=O)[C@H](CO)NC(=O)[C@H](CCC(N)=O)NC(=O)[C@@H](NC(=O)[C@H](Cc1ccccc1)NC(=O)[C@@H](NC(=O)[C@H](C)NC(=O)[C@H](CC(=O)O)NC(=O)[C@@H](C)NC(=O)CCc1ccc(O)cc1)[C@@H](C)CC)[C@@H](C)O)C(C)C)[C@@H](C)CC)C(=O)N[C@@H](CC(=O)O)C(=O)NCCCCNC(=N)N [Peptide P-20350, [Dat^1, D-Ala^2, Gln^8, Orn^12, Abu^15, Orn^21, Nle^27, Asp^28, Agm^29]hGH-RH(1-29)] (Desaminotyrosyl-[dA]DAIFTQSYR[Orn]VL[Abu]QLSAR[Orn]LLQDI[Nle]D-Agmatine) | unusually high responses; also recorded: especially greater growth hormone levels than hGH-RH or JI-38 | – |
| CCCC[C@H](NC(=O)[C@@H](NC(=O)[C@H](CC(=O)O)NC(=O)[C@H](CCC(N)=O)NC(=O)[C@H](CC(C)C)NC(=O)[C@H](CC(C)C)NC(=O)[C@H](CCCN)NC(=O)[C@H](CCCNC(=N)N)NC(=O)[C@H](C)NC(=O)[C@H](CO)NC(=O)[C@H](CC(C)C)NC(=O)[C@H](CCC(N)=O)NC(=O)[C@H](CC)NC(=O)[C@H](CC(C)C)NC(=O)[C@@H](NC(=O)[C@H](CCCN)NC(=O)[C@H](CCCNC(=N)N)NC(=O)[C@H](Cc1ccc(O)cc1)NC(=O)[C@H](CO)NC(=O)[C@H](CCC(N)=O)NC(=O)[C@@H](NC(=O)[C@H](Cc1ccccc1)NC(=O)[C@@H](NC(=O)[C@H](C)NC(=O)[C@H](CC(=O)O)NC(=O)[C@@H](C)NC(=O)[C@H](Cc1ccc(O)cc1)NC)[C@@H](C)CC)[C@@H](C)O)C(C)C)[C@@H](C)CC)C(=O)N[C@@H](CC(=O)O)C(=O)N[C@@H](CCCNC(=N)N)C(=O)NCCCCC(N)=O [Peptide P-22326, [N—Me-Tyr^1, D-Ala^2, Gln^8, Orn^12, Abu^15, Orn^21, Nle^27, Asp^28, Apa^30]hGH-RH(1-30)NH2] (H-[NMeY][dA]DAIFTQSYR[Orn]VL[Abu]QLSAR[Orn]LLQDI[Nle]DR[Ava]-NH2) | unusually high responses; also recorded: especially greater growth hormone levels than hGH-RH or JI-38 | 0.71 |
| CCCC[C@H](NC(=O)[C@@H](NC(=O)[C@H](CC(=O)O)NC(=O)[C@H](CCC(N)=O)NC(=O)[C@H](CC(C)C)NC(=O)[C@H](CC(C)C)NC(=O)[C@H](CCCN)NC(=O)[C@H](CCCNC(=N)N)NC(=O)[C@H](C)NC(=O)[C@H](CO)NC(=O)[C@H](CC(C)C)NC(=O)[C@H](CCC(N)=O)NC(=O)[C@H](CC)NC(=O)[C@H](CC(C)C)NC(=O)[C@@H](NC(=O)[C@H](CCCN)NC(=O)[C@H](CCCNC(=N)N)NC(=O)[C@H](Cc1ccc(O)cc1)NC(=O)[C@H](CO)NC(=O)[C@H](CC(N)=O)NC(=O)[C@@H](NC(=O)[C@H](Cc1ccccc1)NC(=O)[C@@H](NC(=O)[C@H](C)NC(=O)[C@H](CC(=O)O)NC(=O)[C@@H](C)NC(=O)[C@H](Cc1ccc(O)cc1)NC)[C@@H](C)CC)[C@@H](C)O)C(C)C)[C@@H](C)CC)C(=O)N[C@@H](CO)C(=O)N[C@@H](CCCNC(=N)N)C(=O)NCCCC(N)=O [Peptide P-25501, [N—Me-Tyr^1, D-Ala^2, Orn^12, Abu^15, Orn^21, Nle^27, Gab^30]hGH-RH(1-30)NH2] (H-[NMeY][dA]DAIFTNSYR[Orn]VL[Abu]QLSAR[Orn]LLQDI[Nle]SR[GABA]-NH2) | unusually high responses; also recorded: especially greater growth hormone levels than hGH-RH or JI-38 | 1.07 |
